This experiment addresses T1, PARG (Homo sapiens, UniProt Q86W56).
T1 construct: Recombinant full length PARG protein is generated from Sf9 insect cells; made in house; host or cells: Sf9 insect cells
Nature of the experiment: PAR digestion assay (dot blotting with anti-PAR antibody). Format: biochemical. Particulars: PARG incubated with PAR for 20 min at room temperature with or without inhibitors, dot blot with anti-PAR antibody. How it is done: Development of potent and cell-permeant PARG inhibitors via multi-step virtual screening and hierarchical selection. Forty candidates from National Cancer Institute (NCI) were selected to examine the efficacy of PARG inhibition by dot blot assay. PARG was incubated with PAR for 20 min at room temperature with or without inhibitors. PAR-digestion results were analyzed using dot blotting with anti-PAR antibody. […] PC and NC mean positive control (PAR only) and negative control (no inhibitor), respectively. IC50 value of compound 34 was measured by dot blotting with anti-PAR antibody in a dose course of compound 34.
PAR digestion assay: Recombinant PARG protein were incubated with PAR (10 μM, calculated as the ADP-ribose unit) and DMSO (Negative control, NC) or small molecules for 20 minutes at room temperature. Positive control (PC) only contains PAR in PBS. Samples were spotted onto a nitrocellulose membrane. The membrane was blocked with TBST buffer (0.15 M NaCl, 0.01 M Tris-HCl at pH 7.4, 0.1% Tween 20) supplemented with 5% milk and extensively washed with TBST. The membrane was examined by anti-PAR antibody.
Recombinant full length PARG protein is generated from Sf9 insect cells. Recombinant PAR is purified from a biochemical assay using PARP1. PARG is incubated with PAR in the presence of DMSO (Negative control, NC) or small chemical compounds for 20 minutes at room temperature. […]

T1 sequence (Q86W56 whole entry): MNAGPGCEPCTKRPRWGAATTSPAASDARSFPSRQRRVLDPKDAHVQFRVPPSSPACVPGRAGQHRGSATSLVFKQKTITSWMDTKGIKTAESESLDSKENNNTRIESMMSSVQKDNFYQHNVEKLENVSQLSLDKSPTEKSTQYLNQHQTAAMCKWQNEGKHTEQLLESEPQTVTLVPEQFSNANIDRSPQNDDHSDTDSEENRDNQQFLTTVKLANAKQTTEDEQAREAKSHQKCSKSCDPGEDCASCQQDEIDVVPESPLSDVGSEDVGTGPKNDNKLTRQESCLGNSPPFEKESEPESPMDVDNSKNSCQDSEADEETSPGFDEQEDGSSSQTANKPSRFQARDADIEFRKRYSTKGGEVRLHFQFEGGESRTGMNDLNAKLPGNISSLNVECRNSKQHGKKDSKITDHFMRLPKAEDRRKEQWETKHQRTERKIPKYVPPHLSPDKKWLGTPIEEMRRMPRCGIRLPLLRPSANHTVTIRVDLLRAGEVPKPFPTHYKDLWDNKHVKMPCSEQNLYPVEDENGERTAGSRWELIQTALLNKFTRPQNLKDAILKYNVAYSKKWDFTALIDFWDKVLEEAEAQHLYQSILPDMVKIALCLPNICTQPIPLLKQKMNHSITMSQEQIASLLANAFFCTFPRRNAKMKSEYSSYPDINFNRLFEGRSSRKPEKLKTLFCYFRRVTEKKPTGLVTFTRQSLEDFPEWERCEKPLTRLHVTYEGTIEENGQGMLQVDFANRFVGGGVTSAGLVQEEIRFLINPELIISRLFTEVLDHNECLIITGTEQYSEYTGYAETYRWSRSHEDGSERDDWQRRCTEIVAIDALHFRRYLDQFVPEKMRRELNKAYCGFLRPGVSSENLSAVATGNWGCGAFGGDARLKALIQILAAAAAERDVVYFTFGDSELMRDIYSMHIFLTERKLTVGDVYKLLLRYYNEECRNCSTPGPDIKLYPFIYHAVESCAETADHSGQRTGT

For `Cc1ccc(S/N=C/c2c(O)ccc3ccccc23)cc1` [Compound 34], the “inhibitory activity for PARG” value was “inhibitory activity”. Besides, the “inhibitory activity for PARG” value (listed as #34) was “good inhibitory activity”.
